# Laboratory results as given in ChEMBL document CHEMBL4665684, “Antibacterial and NF-κB Inhibitory Lumazine Peptides, Aspochalasin, γ-Butyrolactone Derivatives, and Cyclic Peptides from a Hawaiian Aspergillus flavipes” (J Nat Prod, 2020).
# Calls of active or inactive are those of the source. No cut-off for these calls is given here. Numbered stars: 1 amine (or outer) side, 2 acyl side, 3 side chain; on linkers, the order of the positions; unused ones are H or OH. Square brackets hold non-standard residues; d marks the D form. Peptide text beside a SMILES is read from it. X2 = CC(C)=CCc1cc([C@H](O)[C@H](N[*:1])C(=O)[*:2])ccc1O; X1 = O=C([C@@H](N[*:1])[C@@H](O)c1ccc(O)cc1)[*:2]
# Key:
# [1] = test system: A2780; assay: Antiproliferative activity against human A2780 cells at 40 uM by SRB assay; format: functional, cell-based
# [2] = test system: Staphylococcus aureus; assay: Antibacterial activity against Staphylococcus aureus ATCC 43300 at 80 ug/ml; format: functional, organism-based; conditions: dose 80.0 µg/ml
# [3] = test system: Staphylococcus aureus; assay: Antibacterial activity against Staphylococcus aureus ATCC 43300 in presence of disulfiram; format: functional
# [4] = Inhibition of TNFalpha-induced NFkappaB activation in HEK293 cells after 6 hrs by luciferase reporter gene assay; format: cell-based; conditions: Homo sapiens, HEK293, 6 h
# [5] = test system: Staphylococcus aureus; assay: Antibacterial activity against Staphylococcus aureus ATCC 43300; format: functional
Structure (SMILES),Activity [1],other results
Cn1c(=O)c2nc(C(=O)N[C@@H](CC[S+](C)[O-])C(=O)Nc3ccccc3C(=O)O)cnc2n(C)c1=O (some centres undefined),inactive,–
C[C@H](NC(=O)c1cnc2c(n1)c(=O)n(C)c(=O)n2C)C(=O)Nc1ccccc1C(=O)O,inactive,–
CC1=C[C@H](/C=C(\C)C[C@@H](O)[C@@H](O)/C=C/C(=O)O)[C@]2(O)C(=O)N[C@@H](CC(C)C)[C@@H]2[C@@H]1C,inactive,–
CC(C)=CCc1cc([C@H](O)[C@@H]2NC(=O)CNC(=O)[C@H](C(C)C)NC(=O)CNC(=O)[C@@H]3CCCN3C(=O)[C@H](Cc3c[nH]c4ccccc34)NC(=O)CNC2=O)ccc1O (cyclo(GVG[X2]GWP)),inactive,Activity [2]: inactive; MIC [3]: 10 µg/mL
CC(C)[C@@H]1NC(=O)CNC(=O)[C@@H]2CCCN2C(=O)[C@H](Cc2c[nH]c3ccccc23)NC(=O)CNC(=O)[C@H]([C@@H](O)c2ccc(O)cc2)NC(=O)CNC1=O (cyclo(GVG[X1]GWP)),inactive,Activity [2]: inactive; IC50 [4]: 10.3 µM; MIC [3]: 10 µg/mL
O=C(N[C@H](CO)[C@H](O)c1ccc([N+](=O)[O-])cc1)C(Cl)Cl [CHLORAMPHENICOL],–,MIC [5]: 6.25 µg/mL; MIC [3]: 2.5 µg/mL
Cn1c(=O)c2nc(C(=O)N[C@@H](CO)C(=O)Nc3ccccc3C(=O)O)cnc2n(C)c1=O,inactive,–
COC1=C(c2ccc(O)cc2)[C@@H](Cc2ccc(O)cc2)OC1=O,inactive,Activity [2]: inactive; MIC [3]: 10 µg/mL
C[C@H](O)C(=O)[C@@H](C)C/C=C/[C@H]1[C@@H]2O[C@]2(C)[C@@H](C)[C@H]2[C@H](Cc3ccccc3)NC(=O)[C@]21O,inactive,–
CC1=C[C@@H]2/C=C(\C)CCC(O)C(O)C(O)CC(=O)[C@]23C(=O)N[C@@H](CC(C)C)[C@@H]3[C@@H]1C (some centres undefined),inactive,IC50 [4]: 3.1 µM
COC1=C(c2ccc(O)cc2)[C@@H](Cc2ccc(O)c(CC=C(C)C)c2)OC1=O,inactive,–
COC(=O)c1ccccc1NC(=O)[C@H](CC[S+](C)[O-])NC(=O)c1cnc2c(n1)c(=O)n(C)c(=O)n2C (some centres undefined),inactive,–
Cn1c(=O)c2nc(C(=O)N[C@@H](CCC(N)=O)C(=O)Nc3ccccc3C(=O)O)cnc2n(C)c1=O,inactive,–
COC(=O)[C@]1(Cc2ccc(O)c(CC=C(C)C)c2)OC(=O)C(OC)=C1c1ccc(O)cc1,inactive,–
[C-]#[N+]c1ccccc1NC(=O)[C@H](C)NC(=O)c1cnc2c(n1)c(=O)n(C)c(=O)n2C,inactive,–
